As usually defined, the IC50 is the concentration needed to halve the response being measured.

Each structure is given as a SMILES string. Bounds are passed on as bounds.

For this assay, the system named is LNCaP cells expressing ARR2PB-FireflyLuc and CMV-RenillaLuc. The assay can be described thus: LNCaP ARR2PB-FireflyLuc reporter assay, antagonist mode. It is filed as cell-based. To be noted: Homo sapiens, LNCaP, 48 h, +0.5 nM DHT, 48 h at 37° C., read-out: LNCap Antagonist Archive: IC50. Put shortly:
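LNCaP cells carrying ARR2PB-firefly and CMV-Renilla luciferase reporters were exposed to compound with 0.5 nM DHT for 48 h at 37° C. Remaining activity was scaled between 0.5 nM DHT alone (high) and 10 uM enzalutamide + 0.5 nM DHT (low). IC50 from non-linear regression, reported in bins A–D.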
Regarding `CN(C(=O)c1cc2cccc(Cl)c2[nH]1)C1CCOC1` (stereo not shown) [Example 31, 7-chloro-N-methyl-N-(oxolan-3-yl)-1H-indole-2-carboxamide], the IC50 was 0.1 to 1 µM.
On to `CN(C(=O)c1cc2ccnc(Cl)c2[nH]1)C12CC(F)(C1)C2` [Example 98, 7-chloro-N-[3-fluorobicyclo[1.1.1]pentan-1-yl]-N-methyl-1H-pyrrolo[2,3-c]pyridine-2-carboxamide], for which the IC50 is 0.1 to 1 µM.
As for `COCCN(C(=O)c1cc2ccc(F)cc2[nH]1)c1ccn(C)n1` [Example 57, 6-fluoro-N-(2-methoxyethyl)-N-(1-methyl-1H-pyrazol-3-yl)-1H-indole-2-carboxamide], the figure is > 10 µM; as for `CC1(C)CC(NC(=O)c2cc3cccc(Cl)c3[nH]2)CO1` (stereo not shown) [Example 63, 7-chloro-N-(5,5-dimethyloxolan-3-yl)-1H-indole-2-carboxamide], > 10 µM; as for `Cn1ccc(-c2c(C(=O)NC34CC(C3)C4)[nH]c3c(Cl)cccc23)n1` [Example 107, N-[bicyclo[1.1.1]pentan-1-yl]-7-chloro-3-(1-methylpyrazol-3-yl)-1H-indole-2-carboxamide], > 10 µM.
The value for `COCCN(C(=O)c1cc2cccc(Cl)c2[nH]1)c1ccc(C#N)c(F)c1` [Example 78, 7-Chloro-N-(4-cyano-3-fluorophenyl)-N-(2-methoxyethyl)-1H-indole-2-carboxamide] was 1 to 10 µM; that for `Cc1c(C(=O)NC23CC(F)(C2)C3)n(C)c2c(Cl)nccc12` [Example 129, 7-chloro-N-{3-fluorobicyclo[1.1.1]pentan-1-yl}-1,3-dimethylpyrrolo[2,3-c]pyridine-2-carboxamide] was > 10 µM; that for `Cn1c(C(=O)NC23CC(F)(C2)C3)cc2ccnc(C3CC3)c21` [Example 120, 7-cyclopropyl-N-{3-fluorobicyclo[1.1.1]pentan-1-yl}-1-methylpyrrolo[2,3-c]pyridine-2-carboxamide] was 1 to 10 µM.
In the case of `O=C(NC12CC(C1)C2)c1[nH]c2c(Cl)cccc2c1-c1ccccc1` [Example 108, N-[bicyclo[1.1.1]pentan-1-yl]-7-chloro-3-phenyl-1H-indole-2-carboxamide], the IC50 lay in the range of 1 to 10 µM.
`Cc1c(C(=O)NC23CC(C2)C3)[nH]c2c(Cl)cccc12` [Example 102, N-[bicyclo[1.1.1]pentan-1-yl]-7-chloro-3-methyl-1H-indole-2-carboxamide]: the IC50 lay in the range of 0.1 to 1 µM.
As to `CC(C)N(Cc1cnco1)C(=O)c1cc2ccc(F)cc2[nH]1` [Example 6, 6-fluoro-N-isopropyl-N-(1,3-oxazol-5-ylmethyl)-1H-indole-2-carboxamide], the half-inhibitory concentration (IC50) lay within 1 to 10 µM.
As for `COCCN(C(=O)c1cc2cccc(Cl)c2[nH]1)C12CC(C1)C2` [Example 90, N-[bicyclo[1.1.1]pentan-1-yl]-7-chloro-N-(2-methoxyethyl)-1H-indole-2-carboxamide], the figure is 1 to 10 µM; as for `CC(C)N(Cc1ncco1)C(=O)c1cc2ccc(F)cc2[nH]1` [Example 2, 6-fluoro-N-isopropyl-N-(1,3-oxazol-2-ylmethyl)-1H-indole-2-carboxamide], > 10 µM.
With `COCCN(C(=O)c1cc2ccc(F)cc2[nH]1)c1ccc(C#N)cn1` [Example 159], the half-inhibitory concentration (IC50) lay within 1 to 10 µM.
The value for `CN(C(=O)c1cc2ccc(F)cc2[nH]1)c1ccc(C#N)cc1` [Example 17, N-(4-cyanophenyl)-6-fluoro-N-methyl-1H-indole-2-carboxamide] was 1 to 10 µM; that for `Cn1c(C(=O)NC23CC(C2)C3)cc2ccncc21` [Example 156, N-(bicyclo[1.1.1]pentan-1-yl)-1-methyl-1H-pyrrolo[2,3-c]pyridine-2-carboxamide] was 0.1 to 1 µM.
Consider `CN(C(=O)c1cc2cccc(Cl)c2o1)c1ccc(F)cc1` [Example 35, 7-chloro-N-(4-fluorophenyl)-N-methyl-1-benzofuran-2-carboxamide], for which the IC50 was 1 to 10 µM.
The value for `CC(C)N1CCC(N(C)C(=O)c2cc3cccc(Cl)c3[nH]2)C1` (stereo not shown) [Example 41, 7-chloro-N-(1-isopropylpyrrolidin-3-yl)-N-methyl-1H-indole-2-carboxamide] was > 10 µM.
The value for `COc1nccc2cc(C(=O)N(C)C34CC(C3)C4)[nH]c12` [Example 96, N-[bicyclo[1.1.1]pentan-1-yl]-7-methoxy-N-methyl-1H-pyrrolo[2,3-c]pyridine-2-carboxamide] was 1 to 10 µM; that for `COCCN(C(=O)c1cc2ccc(F)cc2[nH]1)c1ccc(C#N)cc1` [Example 51, N-(4-cyanophenyl)-6-fluoro-N-(2-methoxyethyl)-1H-indole-2-carboxamide] was 1 to 10 µM.
With `CCn1c(C(=O)NC23CC(F)(C2)C3)cc2ccnc(Cl)c21` [Example 111, 7-chloro-1-ethyl-N-[3-fluorobicyclo[1.1.1]pentan-1-yl]pyrrolo[2,3-c]pyridine-2-carboxamide], the IC50 was < 0.1 µM.
The value for `COCCN(C(=O)c1cc2cccc(Cl)c2[nH]1)c1ccc(C#N)cc1C` [Example 77, 7-chloro-N-(4-cyano-2-methylphenyl)-N-(2-methoxyethyl)-1H-indole-2-carboxamide] was > 10 µM; that for `CN(C(=O)c1cc2ccc(F)cc2[nH]1)c1cccnc1` [Example 14, 6-fluoro-N-methyl-N-(pyridin-3-yl)-1H-indole-2-carboxamide] was > 10 µM.
As for `Cn1c(C(=O)NC23CC(C2)C3)cc2ccc(F)cc21` [Example 157, N-(bicyclo[1.1.1]pentan-1-yl)-6-fluoro-1-methyl-1H-indole-2-carboxamide], the figure is 1 to 10 µM; as for `CN(C(=O)c1cc2cccc(C#N)c2[nH]1)C12CC(C1)C2` [Example 94, N-[bicyclo[1.1.1]pentan-1-yl]-7-cyano-N-methyl-1H-indole-2-carboxamide], 1 to 10 µM; as for `CN(C(=O)c1cc2ccc(F)cc2[nH]1)C1CC(F)(F)C1` [Example 92, N-(3,3-difluorocyclobutyl)-6-fluoro-N-methyl-1H-indole-2-carboxamide], 0.1 to 1 µM.
As for `CC(C)N(Cc1cnco1)C(=O)c1cc2cccc(Cl)c2[nH]1` [Example 67, 7-chloro-N-isopropyl-N-(1,3-oxazol-5-ylmethyl)-1H-indole-2-carboxamide], the figure is 0.1 to 1 µM.
Regarding `N#Cc1cccc2cc(C(=O)N(c3ccc(F)cc3)C3CCOC3)[nH]c12` (stereo not shown) [Example 84, 7-cyano-N-(4-fluorophenyl)-N-(oxolan-3-yl)-1H-indole-2-carboxamide], the 50% inhibitory concentration (IC50) lay within 0.1 to 1 µM.
As for `Cn1c(C(=O)NC2CCC2)cc2ccnc(Cl)c21` [Example 143, 7-chloro-N-cyclobutyl-1-methylpyrrolo[2,3-c]pyridine-2-carboxamide], the half-maximal inhibitory concentration (IC50) is 0.1 to 1 µM.
As for `Cn1c(C(=O)NC(C)(C)C)cc2ccnc(Cl)c21` [Example 148, N-tert-butyl-7-chloro-1-methylpyrrolo[2,3-c]pyridine-2-carboxamide], the 50% inhibitory concentration (IC50) lay within 0.1 to 1 µM.
As for `COCCN(C(=O)c1cc2ccc(F)cc2[nH]1)c1cnn(C)c1` [Example 49, 6-fluoro-N-(2-methoxyethyl)-N-(1-methylpyrazol-4-yl)-1H-indole-2-carboxamide], the figure is > 10 µM; as for `CN(C(=O)c1cc2cccc(C#N)c2[nH]1)C1CCCC1` [Example 20, 7-cyano-N-cyclopentyl-N-methyl-1H-indole-2-carboxamide], 1 to 10 µM.
As for `COCCN(C(=O)c1cc2cccc(Cl)c2[nH]1)c1ccc(C#N)c(C)c1` [Example 76, 7-chloro-N-(4-cyano-3-methylphenyl)-N-(2-methoxyethyl)-1H-indole-2-carboxamide], the figure is 1 to 10 µM.
`NCCN(CC1CC1)C(=O)c1cc2cccc(Cl)c2[nH]1` [Example 47, N-(2-aminoethyl)-7-chloro-N-(cyclopropylmethyl)-1H-indole-2-carboxamide]: the IC50 is > 10 µM.

These data come from US12012398B2, “Bicyclic compounds as androgen receptor modulators” (NIDO BIOSCIENCES, INC., priority 2021, dated 2024).
